One test concerns the target T1, TLR7 (Homo sapiens, UniProt Q9NYK1).
T1 construct: Human peripheral blood mononuclear cells (PBMCs) consist of lymphocytes, monocytes and dendritic cells that express TLR7, TLR8 and TLR9; endogenous in cells; host or cells: cryopreserved human PBMCs from healthy donors
T1 sequence (Q9NYK1 27-1049): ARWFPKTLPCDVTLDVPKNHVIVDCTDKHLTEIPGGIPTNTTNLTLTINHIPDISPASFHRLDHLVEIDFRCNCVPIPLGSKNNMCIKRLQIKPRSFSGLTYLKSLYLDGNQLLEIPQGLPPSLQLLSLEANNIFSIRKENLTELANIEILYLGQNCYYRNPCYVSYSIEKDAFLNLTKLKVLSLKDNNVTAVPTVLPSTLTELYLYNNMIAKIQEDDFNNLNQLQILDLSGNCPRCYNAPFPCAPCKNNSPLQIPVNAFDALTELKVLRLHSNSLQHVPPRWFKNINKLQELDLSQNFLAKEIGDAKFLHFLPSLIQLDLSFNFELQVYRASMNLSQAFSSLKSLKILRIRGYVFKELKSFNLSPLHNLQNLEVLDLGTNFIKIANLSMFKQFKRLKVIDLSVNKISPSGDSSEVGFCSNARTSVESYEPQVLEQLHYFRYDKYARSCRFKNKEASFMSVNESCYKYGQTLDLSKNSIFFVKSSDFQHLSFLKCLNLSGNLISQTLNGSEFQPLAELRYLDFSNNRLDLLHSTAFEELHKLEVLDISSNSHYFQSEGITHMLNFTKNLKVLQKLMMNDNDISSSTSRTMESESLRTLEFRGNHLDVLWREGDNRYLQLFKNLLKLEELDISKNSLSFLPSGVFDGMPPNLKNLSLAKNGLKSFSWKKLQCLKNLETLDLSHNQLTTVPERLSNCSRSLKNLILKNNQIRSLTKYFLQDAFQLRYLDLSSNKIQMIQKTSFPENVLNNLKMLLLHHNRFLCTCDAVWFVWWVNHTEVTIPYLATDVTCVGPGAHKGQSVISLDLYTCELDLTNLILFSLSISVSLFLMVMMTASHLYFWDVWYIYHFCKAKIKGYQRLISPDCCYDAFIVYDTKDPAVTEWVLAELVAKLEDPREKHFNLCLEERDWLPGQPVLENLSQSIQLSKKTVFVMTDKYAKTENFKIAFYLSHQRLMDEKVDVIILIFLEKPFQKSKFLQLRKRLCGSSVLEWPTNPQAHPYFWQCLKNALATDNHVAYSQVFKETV
The test is described as follows: TLR7 human PBMC cell-based assay (antagonist, GS-986 stimulated cytokine release). Particulars: human PBMCs; TLR7 agonist GS-986 400 nM, 6 hours; cytokines (IL-6 and IFNα) in supernatant; read-out: TLR-7 EC50. The procedure, abridged: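 Cryopreserved healthy-donor PBMCs (100,000/well, RPMI-1640 + 10% FBS) pre-incubated 1 h at 37 °C with antagonist (10-point dose response, quadruplicate), then stimulated 6 h with GS-986 at 400 nM final. Supernatant IL-6 and IFNα measured by electrochemiluminescence immunoassay; EC50 from sigmoidal fit.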

The target in the next test is T2, TLR8 (Homo sapiens, UniProt Q9NR97).
T2 construct: Human peripheral blood mononuclear cells (PBMCs) consist of lymphocytes, monocytes and dendritic cells that express TLR7, TLR8 and TLR9; endogenous in cells; host or cells: cryopreserved human PBMCs from healthy donors
T2 sequence (Q9NR97 27-1041): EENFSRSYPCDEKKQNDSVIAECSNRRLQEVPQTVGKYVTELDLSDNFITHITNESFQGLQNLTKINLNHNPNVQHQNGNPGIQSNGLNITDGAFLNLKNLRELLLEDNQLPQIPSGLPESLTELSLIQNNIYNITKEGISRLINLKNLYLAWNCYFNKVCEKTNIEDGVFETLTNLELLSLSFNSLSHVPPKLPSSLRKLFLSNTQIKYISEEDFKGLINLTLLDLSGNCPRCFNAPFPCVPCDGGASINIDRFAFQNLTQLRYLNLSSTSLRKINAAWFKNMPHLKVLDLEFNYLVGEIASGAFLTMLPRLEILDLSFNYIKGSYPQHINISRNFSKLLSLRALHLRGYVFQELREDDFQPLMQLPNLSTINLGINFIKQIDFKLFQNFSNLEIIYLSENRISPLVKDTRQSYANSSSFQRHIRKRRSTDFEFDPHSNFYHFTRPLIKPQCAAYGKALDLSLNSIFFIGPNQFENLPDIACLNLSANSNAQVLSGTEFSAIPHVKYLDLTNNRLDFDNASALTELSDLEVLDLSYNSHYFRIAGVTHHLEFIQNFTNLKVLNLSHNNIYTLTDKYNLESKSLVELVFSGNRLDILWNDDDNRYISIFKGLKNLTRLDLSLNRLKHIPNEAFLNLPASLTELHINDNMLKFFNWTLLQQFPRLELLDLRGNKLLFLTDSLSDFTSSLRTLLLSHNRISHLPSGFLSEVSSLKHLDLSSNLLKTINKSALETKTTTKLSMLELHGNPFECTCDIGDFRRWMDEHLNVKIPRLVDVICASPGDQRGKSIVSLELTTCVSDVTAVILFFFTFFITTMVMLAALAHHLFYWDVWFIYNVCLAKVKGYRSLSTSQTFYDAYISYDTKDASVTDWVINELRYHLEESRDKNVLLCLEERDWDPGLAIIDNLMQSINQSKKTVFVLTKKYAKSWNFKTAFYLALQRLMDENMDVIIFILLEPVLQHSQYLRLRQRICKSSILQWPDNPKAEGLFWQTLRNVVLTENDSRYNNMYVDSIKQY
The test is described as follows: TLR8 human PBMC cell-based assay (antagonist, Compound A stimulated cytokine release). The conditions noted are these: human PBMCs; TLR8 agonist Compound A 800 nM, 6 hours; cytokines (TNFa and IL 12p40) in supernatant; read-out: TLR-8 EC50. The procedure, abridged: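 Cryopreserved donor PBMCs (100,000/well, RPMI + 10% FBS) were preincubated 1 h with antagonist (10-point dose response, quadruplicate), then stimulated with Compound A (800 nM final) for 6 h at 37 °C. TNFa and IL-12p40 in supernatants were measured by electrochemiluminescence; sigmoidal fits gave EC50.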

EC50 data for 9 compounds are collected here from patent publication US20240217990A1 (Gilead Sciences, Inc., priority 2021, published 2024).

As to `Cc1cc(-c2[nH]c3cc(C4CCN(CC(N)=O)C5(CCC5)C4)sc3c2C(C)C)cn2ncnc12` (stereo not drawn) [Example 301], the EC50 (commonly the midpoint of the concentration-response curve) is 52 nM at TLR7 and 217 nM at TLR8.
In the case of `Cc1cc(-c2[nH]c3cc(C4CC5CCCC(C4)N5CC(N)=O)sc3c2C(C)C)cn2ncnc12` (stereo not drawn) [Example 302], the EC50 at TLR7 is 11.9 nM; on TLR8 it was 54 nM.
For `Cc1cc(-c2[nH]c3cc(C4CC4C(=O)N4CCNCC4)sc3c2C(C)C)cn2ncnc12` (stereo not drawn) [Example 303], in that order: 0.44 nM and 3.52 nM.
For `Cc1cc(-c2[nH]c3cc(C4CC5(CCN(CC(N)=O)CC5)C4)sc3c2C(C)C)cn2ncnc12` [Example 304], in that order: 0.5 nM and 2.06 nM.
On to `CC(C)c1c(-c2cc(C(F)(F)F)c3ncnn3c2)[nH]c2cc(C(=O)N3CCNCC3)sc12` [Example 305], for which the EC50 turned out to be 2.36 nM at TLR7 and 5.14 nM at TLR8.
For `Cc1cc(-c2[nH]c3cc(C4CC4C(=O)N4CCN(CCO)CC4)sc3c2C(C)C)cn2ncnc12` (stereo not drawn) [Example 306], in that order: 22.7 nM and 25 nM.
For `Cc1cc(-c2[nH]c3cc([C@@H]4C[C@H]5CC[C@@H](C4)N5)sc3c2C(C)C)cn2ncnc12` [Example 307, 2-((1R,3s,5S)-8-azabicyclo[3.2.1]octan-3-yl)-6-isopropyl-5-(8-methyl-[1,2,4]triazolo[1,5-a]pyridin-6-yl)-4H-thieno[3,2-b]pyrrole], in that order: 0.09 nM and 7.49 nM.
For `Cc1cc(-c2[nH]c3cc(C4CC5(CCNCC5)C4)sc3c2C(C)C)cn2ncnc12` [Example 308], in that order: 0.28 nM and 3.46 nM.
With `Cc1cc(-c2[nH]c3cc(C4C5CCC4CN(CC(N)=O)C5)sc3c2C(C)C)cn2ncnc12` (stereo not drawn) [Example 309, 2-(8-(6-isopropyl-5-(8-methyl-[1,2,4]triazolo[1,5-a]pyridin-6-yl)-4H-thieno[3,2-b]pyrrol-2-yl)-3-azabicyclo[3.2.1]octan-3-yl)acetamide], the results for the EC50 at TLR7 and on TLR8 were 0.95 nM and 17.1 nM, respectively.
